Results from patent publication US6444651B1, “Antimicrobial agents for eucaryotic microorganisms and methods of growth suppression of eucaryotic microorganisms using these agents” (Asama Chemical Co., Ltd., priority 1997, dated 2002).

Tested on: Fungi
Test: Preservation tests for milky-lotion type hair tonics (Example 9)
Parameters: key: +: Fungi appeared
Details: day 14; 37° C.; DNA 0.03%, control 0.1% Ethyl p-hydroxy benzoate
Description: A milky-lotion type hair tonic was prepared using the components described below. It was manufactured under the open system since microbial infection from the air was expected.
The oil phase (A) and aqueous phase (B) were heated to 85° C., respectively. Then, (A) and (B) were mixed and agitated to emulsification at the same temperature. A hair tonic was prepared after the mixture was cooled down to normal temperature.
The hair tonic prepared was poured into a bottle with 0.03% of the DNA. The bottle was sealed and kept at 37° C. for preservation tests. 0.1% Ethyl p-hydroxy benzoate was added to the hair tonic as a control instead of the DNA.

CCOC(=O)c1ccc(O)cc1 [Control, Ethyl p-hydroxy benzoate]
appearance of fungi in hair tonic: +
